For the assay, the target named is T1, Human KLK1 (Homo sapiens, UniProt P06870).
T1 construct: purchased Callbiochem (Calbiochem)
Put plainly: Determination of the IC50 for KLK1 (fluorogenic substrate H-DVal-Leu-Arg-AFC). The class given is biochemical. The settings on record: 37° C. The procedure, abridged:
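Test compound at various concentrations was incubated with human KLK1 and the fluorogenic substrate H-DVal-Leu-Arg-AFC at 37° C. Absorbance change at 410 nm gave the initial reaction rate, from which IC50 was obtained.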

What is called IC50 is the point on the concentration scale where inhibition reaches its midpoint. The low end stands for greater potency in that assay, the high end for weaker potency in that assay.

T1 sequence (P06870 25-262): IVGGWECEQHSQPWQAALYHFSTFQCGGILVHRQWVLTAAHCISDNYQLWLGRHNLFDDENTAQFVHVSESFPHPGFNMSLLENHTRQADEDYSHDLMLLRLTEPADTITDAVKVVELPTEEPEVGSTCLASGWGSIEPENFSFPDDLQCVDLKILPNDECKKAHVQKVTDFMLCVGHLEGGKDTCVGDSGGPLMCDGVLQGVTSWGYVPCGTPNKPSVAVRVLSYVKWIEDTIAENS

`CCC(C)[C@H](C(=O)N[C@@H](Cc1ccc(F)c(F)c1)C(=O)NCc1ccc(N)nc1)N(C)C` (stereo partly drawn) [Example 178, (R)-2-Dimethylamino-3-methyl-pentanoic acid [(S)-1-[(6-amino-pyridin-3-ylmethyl)-carbamoyl]-2-(3,4-difluoro-phenyl)-ethyl]-amide]: the IC50 was determined as 15.9 nM.
For `CN1CCC[C@@H]1C(=O)N[C@@H](CC1CCCCC1)C(=O)NCc1ccc(N)nc1` [Example 115, (R)-1-Methyl-pyrrolidine-2-carboxylic acid {(S)-1-[(6-amino-pyridin-3-ylmethyl)-carbamoyl]-2-cyclohexyl-ethyl}-amide] the value was 19.5 nM.
With `CN1CCC[C@@H]1C(=O)N[C@@H](Cc1cc(F)cc(F)c1)C(=O)NCc1ccc(N)nc1` [Example 96, (R)-1-Methyl-pyrrolidine-2-carboxylic acid [(S)-1-[(6-amino-pyridin-3-ylmethyl)-carbamoyl]-2-(3,5-difluoro-phenyl)-ethyl]-amide], it took 5.5 nM to reach half-maximal inhibition (IC50).
In the case of `Cc1c[nH]c(C(=O)N[C@@H](Cc2cccc(Cl)c2)C(=O)NCc2ccc(N)nc2)c1` [Example 259, 4-Methyl-1H-pyrrole-2-carboxylic acid [(S)-1-[(6-amino-pyridin-3-ylmethyl)-carbamoyl]-2-(3-chloro-phenyl)-ethyl]-amide], the IC50 was 85.4 nM.
With `Nc1ccc(CNC(=O)[C@H](Cc2ccc(F)c(F)c2)NC(=O)c2nc3ccccc3[nH]2)cn1` [Example 328, 1H-Benzoimidazole-2-carboxylic acid [(S)-1-[(6-amino-pyridin-3-ylmethyl)-carbamoyl]-2-(3,4-difluoro-phenyl)-ethyl]-amide], the midpoint of inhibition, the IC50, lay at 179 nM.
To `Nc1ccc(CNC(=O)[C@H](Cc2cccc(F)c2)NC(=O)c2cc3ccccc3[nH]2)cn1` [Example 311, 1H-Indole-2-carboxylic acid [(S)-1-[(6-amino-pyridin-3-ylmethyl)-carbamoyl]-2-(3-fluoro-phenyl)-ethyl]-amide] belongs 46.5 nM.
For `COc1cccc(C[C@H](NC(=O)[C@H]2CCCN2C)C(=O)NCc2ccc(N)nc2)c1` [Example 107, (R)-1-Methyl-pyrrolidine-2-carboxylic acid [(S)-1-[(6-amino-pyridin-3-ylmethyl)-carbamoyl]-2-(3-methoxy-phenyl)-ethyl]-amide] the value was 71.2 nM; for `Cc1nc(N)ccc1CNC(=O)[C@H](Cc1ccc(Cl)c(Cl)c1)NC(=O)c1cc2ccccc2[nH]1` [Example 320, 1H-Indole-2-carboxylic acid [(S)-1-[(6-amino-2-methyl-pyridin-3-ylmethyl)-carbamoyl]-2-(3,4-dichloro-phenyl)-ethyl]-amide], 98.5 nM; for `Cc1nc(N)ccc1CNC(=O)[C@H](Cc1ccc(Cl)c(Cl)c1)NC(=O)[C@H]1CCCCN1` [Example 201, (R)-Piperidine-2-carboxylic acid [(S)-1-[(6-amino-2-methyl-pyridin-3-ylmethyl)-carbamoyl]-2-(3,4-dichloro-phenyl)-ethyl]-amide], 1.3 nM.
For `CN1CCC[C@@H]1C(=O)N[C@@H](Cc1ccccc1)C(=O)NCc1ccc(N)nc1` [Example 101, (R)-1-Methyl-pyrrolidine-2-carboxylic acid {(S)-1-[(6-amino-pyridin-3-ylmethyl)-carbamoyl]-2-phenyl-ethyl}-amide] the value was 24.1 nM; for `Nc1ccc(CNC(=O)[C@H](Cc2ccc(Cl)c(Cl)c2)NC(=O)[C@H]2CSCN2)cn1` [Example 56, (S)-Thiazolidine-4-carboxylic acid [(S)-1-[(6-amino-pyridin-3-ylmethyl)-carbamoyl]-2-(3,4-dichloro-phenyl)-ethyl]-amide], 7.1 nM.
Compound `CCC(C)[C@@H](N)C(=O)N[C@@H](Cc1cc(F)cc(F)c1)C(=O)NCc1ccc(N)nc1` (stereo partly drawn) [Example 39, (R)-2-Amino-3-methyl-pentanoic acid [(S)-1-[(6-amino-pyridin-3-ylmethyl)-carbamoyl]-2-(3,5-difluoro-phenyl)-ethyl]-amide] returned an IC50 of 5.8 nM.
To `Cn1c(C(=O)N[C@@H](Cc2cccc3ccccc23)C(=O)NCc2ccc(N)nc2)cc2ccccc21` [Example 306, 1-Methyl-1H-indole-2-carboxylic acid {(S)-1-[(6-amino-pyridin-3-ylmethyl)-carbamoyl]-2-naphthalen-1-yl-ethyl}-amide] belongs 163 nM.
As for `CCC(C)[C@@H](N)C(=O)N[C@@H](Cc1ccccc1Cl)C(=O)NCc1ccc(N)nc1` (stereo partly drawn) [Example 24, (R)-2-Amino-3-methyl-pentanoic acid [(S)-1-[(6-amino-pyridin-3-ylmethyl)-carbamoyl]-2-(2-chloro-phenyl)-ethyl]-amide], the IC50 amounted to 27.8 nM.
For `CC(C)[C@@H](C(=O)N[C@@H](Cc1ccc(F)c(F)c1)C(=O)NCc1ccc(N)nc1)N(C)C(C)C` [Example 348, (S)—N-[(S)-1-[(6-Amino-pyridin-3-ylmethyl)-carbamoyl]-2-(3,4-difluoro-phenyl)-ethyl]-2-(isopropyl-methyl-amino)-3-methyl-butyramide] the value was 11.1 nM; for `Cc1cc(C)c(C(=O)N[C@@H](Cc2ccc(F)cc2)C(=O)NCc2ccc(N)nc2C)[nH]1` [Example 285, 3,5-Dimethyl-1H-pyrrole-2-carboxylic acid [(S)-1-[(6-amino-2-methyl-pyridin-3-ylmethyl)-carbamoyl]-2-(4-fluoro-phenyl)-ethyl]-amide], 6.5 nM.
For `Cc1cc(C)c(C(=O)N[C@@H](Cc2c[nH]c3ccccc23)C(=O)NCc2ccc(N)nc2)[nH]1` [Example 241, 3,5-Dimethyl-1H-pyrrole-2-carboxylic acid [(S)-1-[(6-amino-pyridin-3-ylmethyl)-carbamoyl]-2-(1H-indol-3-yl)-ethyl]-amide] the value was 3.8 nM; for `CC(C)CN(C)CC(=O)N[C@@H](Cc1ccc(Cl)c(Cl)c1)C(=O)NCc1ccc(N)nc1` [Example 154, (S)—N-(6-Amino-pyridin-3-ylmethyl)-3-(3,4-dichloro-phenyl)-2-[2-(isobutyl-methyl-amino)-acetylamino]-propionamide], 216 nM.
`CCC(C)[C@@H](NC)C(=O)N[C@@H](Cc1ccc(C(C)(C)C)cc1)C(=O)NCc1ccc(N)nc1` (stereo partly drawn) [Example 52, (R)-3-Methyl-2-methylamino-pentanoic acid [(S)-1-[(6-amino-pyridin-3-ylmethyl)-carbamoyl]-2-(4-tert-butyl-phenyl)-ethyl]-amide] returned an IC50 of 24.5 nM.
`Nc1ccc(CNC(=O)[C@H](Cc2ccc(F)c(F)c2)NC(=O)[C@H](N)Cc2ccccc2)cn1` [Example 80, (R)-2-Amino-N-[(S)-1-[(6-amino-pyridin-3-ylmethyl)-carbamoyl]-2-(3,4-difluoro-phenyl)-ethyl]-3-phenyl-propionamide]: the IC50 came out at 16.1 nM.
For `Cc1cc[nH]c1C(=O)N[C@@H](Cc1ccc(Cl)cc1)C(=O)NCc1ccc(N)nc1` [Example 267, 3-Methyl-1H-pyrrole-2-carboxylic acid [(S)-1-[(6-amino-pyridin-3-ylmethyl)-carbamoyl]-2-(4-chloro-phenyl)-ethyl]-amide] the value was 8.2 nM; for `Cc1nc(N)ccc1CNC(=O)[C@H](Cc1ccc(Cl)c(Cl)c1)NC(=O)[C@H]1CC(F)(F)CN1` [Example 192, (R)-4,4-Difluoro-pyrrolidine-2-carboxylic acid [(S)-1-[(6-amino-2-methyl-pyridin-3-ylmethyl)-carbamoyl]-2-(3,4-dichloro-phenyl)-ethyl]-amide], 60.4 nM.

Values taken from patent publication US20100076015A1, “Aminopyridine Derivatives” (VANTIA LIMITED, priority 2008, published 2010).
